Data taken from US10450326B2, “Thiazolopyrimidinone compounds and preparation methods and use thereof” (PEKING UNIVERSITY, priority 2015, dated 2019).

Target: T1, α7 nAChR (Homo sapiens, UniProt P36544)
T1 construct: expressed in transfected cells; host or cells: Xenopus oocytes (cRNA injection)
Assay: α7 nAChR positive allosteric modulator activity assay, voltage clamp in Xenopus oocytes with 100 μM ACh
Format: cell-based
Conditions: for activity at 10 µM: at 10 μM compound, current induced by 100 μM ACh, Xenopus oocytes expressing α7 nAChR, read-out: Max Mod (%, at 10 μM); for EC50: potentiation of current induced by 100 μM ACh, Hill equation fit
Procedure: The experimental process was as follows:
(1) Xenopus oocytes were injected with cRNA encoding α7 nAChR in order to express α7 nAChR on the cell membrane successfully;
(2) 100 μM ACh alone was added, and the α7 nAChR characteristic current caused by it was recorded as a control;
(5) The oocytes were incubated for 1 min with 10 μM compound, then 10 µM compound and 100 μM ACh were added simultaneously and the current induced by ACh was recorded at this time;
(6) The differences between the two currents in terms of peak intensity and duration were compared, with the ratio of peak intensity of the two currents representing the adjustment effect (Enhance Rate), in order to determine whether the compound had PAM activity, if the activity was good, then the subsequent test was carried out;
(7) Concentration gradient was set and the effects of compounds at different concentrations on the α7 nAChR characteristic current induced by 100 μM ACh were evaluated. Several determinations were carried out at the same concentration, and the results were presented in the form of “mean±standard deviation”;
(8) The EC50 (median maximum effect concentration) values and Max mod (the current amplitude caused by the maximal degree of adjustable endogenous agonist acetylcholine) values of the compounds and other activity data were obtained by Hill equation Inormalized=Emax/(1+(EC50/C)nH).
The amplitude of the peak current is only normalized by the amplitude produced by 100 μM ACh and different concentrations of LD486. […] It can be seen from FIG. 3 that the Hill equation is used to fit the dose-response curve and calculate the kinetic parameters.

T1 sequence (P36544 23-502): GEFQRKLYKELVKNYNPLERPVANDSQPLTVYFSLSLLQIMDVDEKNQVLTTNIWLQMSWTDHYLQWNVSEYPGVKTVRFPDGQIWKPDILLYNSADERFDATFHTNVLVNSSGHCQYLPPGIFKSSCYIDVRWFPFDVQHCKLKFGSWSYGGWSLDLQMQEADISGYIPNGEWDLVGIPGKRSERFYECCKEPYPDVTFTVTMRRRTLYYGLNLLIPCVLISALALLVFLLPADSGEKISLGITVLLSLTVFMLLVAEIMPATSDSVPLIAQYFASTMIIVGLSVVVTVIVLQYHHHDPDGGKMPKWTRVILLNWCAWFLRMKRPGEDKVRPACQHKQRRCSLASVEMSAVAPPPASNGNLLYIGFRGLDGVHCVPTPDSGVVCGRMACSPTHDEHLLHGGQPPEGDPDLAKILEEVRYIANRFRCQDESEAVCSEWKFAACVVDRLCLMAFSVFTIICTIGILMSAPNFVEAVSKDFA

Row | SMILES | activity at 10 µM | EC50
1 | Cc1nc(Cl)cc(Nc2nc3nnn(-c4c(C)cccc4Cl)c(=O)c3s2)n1 [JWX-A3N, 6-((6-Chloro-2-methylpyrimidin-4-yl)amino)-3-(2-chloro-6-methylphenyl)thiazolo[4,5-d][1,2,3]triazin-4(3H)-one] | 110% | 
2 | Cc1ccc(Nc2nc3ncn(-c4c(C)cccc4Cl)c(=O)c3s2)cc1F [JWX-A0108, 6-(2-Chloro-6-methylphenyl)-2-((3-fluoro-4-methylphenyl)amino)thiazolo[4,5-d]pyrimidin-7(6H)-one] |  | 3.39 µM
3 | Cc1cccc(Cl)c1-n1cnc2nc(NC(=O)c3ccccc3)sc2c1=O [JWX-A0121, N-(6-(2-Chloro-6-methylphenyl)-7-oxo-6,7-dihydrothiazolo[4,5-d]pyrimidin-2-yl)benzamide] | 200% | 10 µM
4 | Cc1ccc(C(=O)Nc2nc3ncn(-c4c(C)cccc4Cl)c(=O)c3s2)cc1 [JWX-A0310, N-(6-(2-Chloro-6-methylphenyl)-7-oxo-6,7-dihydrothiazolo[4,5-d]pyrimidin-2-yl)-4-methylbenzamide] | 450% | 10 µM
5 | COc1ccc(C(=O)Nc2nc3ncn(-c4c(C)cccc4Cl)c(=O)c3s2)cc1 [JWX-A0312, N-(6-(2-Chloro-6-methylphenyl)-7-oxo-6,7-dihydrothiazolo[4,5-d]pyrimidin-2-yl)-4-methoxybenzamide] | 630% | 10 µM
6 | Cc1ccc(Nc2nc3ncn(-c4c(C)cccc4Cl)c(=O)c3s2)cc1C [JWX-A0315, 6-(2-Chloro-6-methylphenyl)-2-((3,4-dimethylphenyl)amino)thiazolo[4,5-d]pyrimidin-7(6H)-one] | 650% | 6.99 µM
7 | Cc1cc(Nc2nc3ncn(-c4c(C)cccc4Cl)c(=O)c3s2)cc(C)c1C [JWX-A0322, 6-(2-Chloro-6-methylphenyl)-2-((3,4,5-trimethylphenyl)amino)thiazolo[4,5-d]pyrimidin-7(6H)-one] | 600% | 3.15 µM
8 | Cc1ccc(Nc2nc3ncn(-c4ccccc4C)c(=O)c3s2)cc1 [JWX-A0414, 6-(o-Tolyl)-2-(p-tolylamino)thiazolo[4,5-d]pyrimidin-7(6H)-one] | 150% | 10 µM
9 | Cc1ccc(Nc2nc3ncn(-c4ccccc4Cl)c(=O)c3s2)cc1 [JWX-A0415, 6-(2-Chlorophenyl)-2-(p-tolylamino) thiazolo[4,5-d]pyrimidin-7(6H)-one] | 680% | 10 µM
10 | Cc1ccccc1Nc1nc2ncn(-c3c(C)cccc3Cl)c(=O)c2s1 [JWX-A0602, 6-(2-Chloro-6-methylphenyl)-2-(o-tolylamino)thiazolo[4,5-d]pyrimidin-7(6H)-one] | 300% | 10 µM
11 | Cc1cccc(Cl)c1-n1cnc2nc(Nc3ccccc3F)sc2c1=O [JWX-A0611, 6-(2-Chloro-6-methylphenyl)-2-((2-fluorophenyl)amino)thiazolo[4,5-d]pyrimidin-7(6H)-one] | 200% | 10 µM
12 | Cc1cccc(Cl)c1-n1cnc2nc(NC(=O)c3ccc(F)cc3)sc2c1=O [JWX-A0617, N-(6-(2-Chloro-6-methylphenyl)-7-oxo-6,7-dihydrothiazolo[4,5-d]pyrimidin-2-yl)-4-fluorobenzamide] | 150% | 10 µM
13 | Cc1nc(Nc2nc3ncn(-c4c(C)cccc4Cl)c(=O)c3s2)cc(N2CCN(CCO)CC2)n1 [JWX-A0728, 6-(2-Chloro-6-methylphenyl)-2-((6-(4-(2-hydroxyethyl)piperazin-1-yl)-2-methylpyrimidin-4-yl)amino)thiazolo[4,5-d]pyrimidin-7(6H)-one] | 110% | 
14 | Cc1cccc(Cl)c1-n1cnc2nc(Nc3ccccc3)sc2c1=O [JWX-A0824, 6-(2-Chloro-6-methylphenyl)-2-(phenylamino)thiazolo[4,5-d]pyrimidin-7(6H)-one] | 300% | 10 µM
15 | Cc1cccc(Cl)c1-n1cnc2nc(Nc3ccccn3)sc2c1=O [JWX-A0828, 6-(2-Chloro-6-methylphenyl)-2-(pyridin-2-ylamino)thiazolo[4,5-d]pyrimidin-7(6H)-one] | 110% | 
16 | Cc1cccc(Cl)c1-n1cnc2nc(O)sc2c1=O [JWX-A0903, 6-(2-Chloro-6-methylphenyl)-2-hydroxythiazolo[4,5-d]pyrimidin-7(6H)-one] | 110% | 
17 | Cc1cccc(Cl)c1-n1cnc2nc(Nc3cc(Cl)ncn3)sc2c1=O [JWX-A0912, 6-(2-Chloro-6-methylphenyl)-2-((6-chloropyrimidin-4-yl)amino)thiazolo[4,5-d]pyrimidin-7(6H)-one] | 200% | 10 µM

Row | SMILES | activity at 10 µM | EC50
18 | Cc1cccc(Cl)c1-n1cnc2nc(Nc3ccc(Cl)nn3)sc2c1=O [JWX-A0918, 6-(2-Chloro-6-methylphenyl)-2-((6-chloropyridazin-3-yl)amino)thiazolo[4,5-d]pyrimidin-7(6H)-one] | 110% | 
19 | Cc1nc(Nc2nc3ncn(-c4c(C)cccc4Cl)c(=O)c3s2)cc(N2CCN(C)CC2)n1 [JWX-A1022, 6-(2-Chloro-6-methylphenyl)-2-((2-methyl-6-(4-methylpiperazin-1-yl)pyrimidin-4-yl)amino)thiazolo[4,5-d]pyrimidin-7(6H)-one] | 110% | 
20 | Cc1ccc(Nc2nc3ncn(-c4c(C)cccc4Cl)c(=O)c3s2)cc1 [JWX-A1029, 6-(2-Chloro-6-methylphenyl)-2-(p-tolylamino)thiazolo[4,5-d]pyrimidin-7(6H)-one] |  | 7.47 µM
21 | COc1ccc(Nc2nc3ncn(-c4c(C)cccc4Cl)c(=O)c3s2)cc1 [JWX-A1030, 6-(2-Chloro-6-methylphenyl)-2-((4-methoxyphenyl)amino)thiazolo[4,5-d]pyrimidin-7(6H)-one] | 200% | 10 µM
22 | Cc1cccc(Cl)c1-n1cnc2nc(Nc3ccc(Cl)cc3)sc2c1=O [JWX-A1104, 6-(2-Chloro-6-methylphenyl)-2-((4-chlorophenyl)amino)thiazolo[4,5-d]pyrimidin-7(6H)-one] | 200% | 10 µM
23 | Cc1cccc(Cl)c1-n1cnc2nc(Nc3ccc(Br)cc3)sc2c1=O [JWX-A1105, 6-(2-chloro-6-methylphenyl)-2-((4-Bromophenyl)amino)-thiazolo[4,5-d]pyrimidin-7(6H)-one] | 150% | 10 µM
24 | COc1cccc(Nc2nc3ncn(-c4c(C)cccc4Cl)c(=O)c3s2)c1 [JWX-A1106, 6-(2-chloro-6-methylphenyl)-2-((3-methoxyphenyl)amino)thiazolo[4,5-d]pyrimidin-7(6H)-one] | 150% | 10 µM
25 | Cc1cccc(Cl)c1-n1cnc2nc(Nc3cccc(Br)c3)sc2c1=O [JWX-A1113, 6-(2-chloro-6-methylphenyl)-2-((3-Bromophenyl)amino)-thiazolo[4,5-d]pyrimidin-7(6H)-one] | 200% | 10 µM
26 | Cc1cccc(Cl)c1-n1cnc2nc(N(C)c3ccccc3)sc2c1=O [JWX-A1114, 6-(2-Chloro-6-methylphenyl)-2-(methyl(phenyl)amino)thiazolo[4,5-d]pyrimidin-7(6H)-one] | 150% | 10 µM
27 | Cc1cccc(Cl)c1-n1cnc2nc(Nc3cccc(Cl)c3)sc2c1=O [JWX-A1116, 6-(2-Chloro-6-methylphenyl)-2-((3-chlorophenyl)amino)thiazolo[4,5-d]pyrimidin-7(6H)-one] | 300% | 10 µM
28 | Cc1cccc(Cl)c1-n1cnc2nc(Nc3ccc(F)cc3)sc2c1=O [JWX-A1119, 6-(2-Chloro-6-methylphenyl)-2-((4-fluorophenyl)amino)thiazolo[4,5-d]pyrimidin-7(6H)-one] | 250% | 10 µM
29 | Cc1cccc(Nc2nc3ncn(-c4c(C)cccc4Cl)c(=O)c3s2)c1 [JWX-A1211, 6-(2-Chloro-6-methylphenyl)-2-(m-tolylamino)thiazolo[4,5-d]pyrimidin-7(6H)-one] |  | 8.39 µM
30 | Cc1cccc(Cl)c1-n1cnc2nc(Nc3cccc(F)c3)sc2c1=O [JWX-A1214, 6-(2-Chloro-6-methylphenyl)-2-((3-fluorophenyl)amino)thiazolo[4,5-d]pyrimidin-7(6H)-one] | 450% | 7.65 µM
31 | Cc1cccc(Cl)c1-n1cnc2nc(SCc3ccccc3)sc2c1=O [JWX-A1223, 6-(2-chloro-6-methylphenyl)-2-(Benzylthio)thiazolo[4,5-d]pyrimidin-7(6H)-one] |  | 1.26 µM
32 | Cc1cccc(Cl)c1-n1cnc2nc(NCc3ccccc3)sc2c1=O [JWX-A1228, 6-(2-chloro-6-methylphenyl)-2-(Benzylamino)thiazolo[4,5-d]pyrimidin-7(6H)-one] | 110% | 
33 | CCCNc1nc2ncn(-c3c(C)cccc3Cl)c(=O)c2s1 [JWX-A1229, 6-(2-Chloro-6-methylphenyl)-2-(n-propylamino)thiazolo[4,5-d]pyrimidin-7(6H)-one] | 110% | 
34 | Cc1cccc(Cl)c1-n1cnc2nc(Nc3ccc(F)c(Cl)c3)sc2c1=O [JWX-A-C0104, 6-(2-chloro-6-methylphenyl)-2-((3-chloro-4-fluorophenyl)amino)thiazolo[4,5-d]pyrimidin-7(6H)-one] | 500% | 10 µM
